These results are taken from ChEMBL document CHEMBL1135908, “Synthesis and biological evaluation of cycloalkylidene carboxylic acids as novel effectors of Ras/Raf interaction” (J Med Chem, 2002).

The experiment is described as follows: Cytotoxicity of compound towards Y190 yeast cells. The class given is functional, cell-based. The settings on record: Saccharomyces cerevisiae.
As for `COc1ccc(C2CCC(=C(C)C(=O)O)CC2)cc1` (stereo not drawn), the EC50 – broadly, the concentration needed to bring the measured effect to its halfway point – was found to be 130 µM.

`CC(C(=O)O)=C1CCC(c2ccccc2)CC1` (stereo not drawn) yielded an EC50 of 143 µM.

Consider `O=C(O)C=C1CCCC1`, for which the EC50 was over 300 µM.

Regarding `O=C(O)C=C1CCCCCC1`, the concentration for a half-maximal effect (EC50) was over 300 µM.

In the case of `CC(C(=O)O)=C1CCCC1`, the EC50 is over 300 µM.

Regarding `C/C(C(=O)O)=C1\CCCC(C)C1` (stereo not drawn), the EC50 is over 300 µM.

Turning to `CCCC1CCC(=C(C)C(=O)O)CC1` (stereo not drawn), the EC50 amounted to 74 µM.

The compound `CCC1CCC(=C(C)C(=O)O)CC1` (stereo not drawn) displayed an EC50 of 125 µM.

Take `CC(C(=O)O)=C1CCCCC1`: the EC50 was over 300 µM.

Compound `CC(C(=O)O)=C1CCC(C)CC1` (stereo not drawn) displayed an EC50 of over 300 µM.

Regarding `CC(C(=O)O)=C1CCC(C(C)(C)C)CC1` (stereo not drawn), the EC50 came to 81 µM.

On to `CC(C(=O)O)=C1CCCCCC1`, for which the EC50 is over 300 µM.

Consider `O=CC=C1CCCCCC1`, for which the EC50 was over 300 µM.
